Results taken from patent US20220306630A1, “AGONISTS OF ROR GAMMAt” (BRISTOL-MYERS SQUIBB COMPANY, priority 2019, published 2022).
Read-outs that look alike come from different tables or passages of the source.

Biological target: T1, RORgT (Homo sapiens, UniProt P51449)
T1 construct: Gal4 (fusion partner); expressed in transfected cells; host or cells: engineered Jurkat cells (Jurkat pEx/Gal/hRORγ CLBD/HYG pG5luc/blast)
T1 sequence (P51449 267-516): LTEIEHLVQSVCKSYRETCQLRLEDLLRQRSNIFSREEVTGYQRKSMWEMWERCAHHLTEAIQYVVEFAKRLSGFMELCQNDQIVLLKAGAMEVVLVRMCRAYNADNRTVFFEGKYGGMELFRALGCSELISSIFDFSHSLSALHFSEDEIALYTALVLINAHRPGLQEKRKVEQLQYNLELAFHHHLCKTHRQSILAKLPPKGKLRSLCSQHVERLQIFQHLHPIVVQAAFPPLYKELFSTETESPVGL
Test: RORgT Gal4 Luciferase Reporter Gene Assay
Type: cell-based
Settings: engineered Jurkat cells overexpressing RORgT (LBD or full length) with Gal4 Luc reporter, 18 hours at 37° C., 40 μM to 0.67 nM
Procedure: The compound and the cells were incubated for 18 hours at 37° C. in a cell culture incubator. Cells were then lysed with 15 uL of Steady-Glo Luciferase Assay reagent (Promega EZ550), followed by centrifuging the assay plates at 1500 RPM for 1 minute. Subsequently, the plates were read on the Envision (PerkinElmer). The inhibition of constitutive activity of RORgT achieved by graded concentrations of compound was calculated as a percentage of the luminescence signal window reduction over a control compound.

EC50 (read-out: RORg_GAL4 EC50) [nM] | Compound | EC50 (RORg_GAL4 EC50 (nM)) [nM]
424 | COc1ccc(Oc2c(Cl)cc(NC(=O)CN3CCC[C@@H](NS(=O)(=O)C4CC4)C3)cc2Cl)cc1C(C)C [Example 166] | 
268 | COc1ccc(Oc2c(Cl)cc(NC(=O)Cc3cccnc3)cc2Cl)cc1C(C)(C)C [Example 13, N-(4-(3-(tert-butyl)-4-methoxyphenoxy)-3,5-dichlorophenyl)-2-(pyridin-3-yl)acetamide] | 
40 | COc1ncc(Oc2c(Cl)cc(NC(=O)CN3CCC(S(C)(=O)=O)CC3)cc2Cl)cc1C(C)C [Example 268] | 
27 | CC(C)c1cc(Oc2c(Cl)ccc(C(=O)NCC3CCN(S(C)(=O)=O)CC3)c2Cl)ccc1F [Example 113] | 
1060 | COc1ccc(Oc2c(Cl)cc(NC(=O)NC(C)C)cc2Cl)cc1C(C)C [Example 34, 1-(3,5-dichloro-4-(3-isopropyl-4-methoxyphenoxy)phenyl)-3-isopropylurea] | 
372 | COc1ccc(Oc2c(Cl)cc(NC(=O)C3(c4cccnc4)CCCCC3)cc2Cl)cc1C(C)C [Example 348] | 
1270 | COc1ccc(Oc2c(Cl)cc(NC(=O)OCCn3ccnc3)cc2Cl)cc1C(C)C [Example 235] | 
31 | COc1ccc(Oc2c(Cl)ccc(CNC(=O)C3CCN(S(N)(=O)=O)CC3)c2Cl)cc1C(C)C [Example 63] | 
11 | CC(C)c1cc(Oc2c(Cl)cc(NC(=O)CC3CCN(S(C)(=O)=O)CC3)cc2Cl)ccc1F [Example 266] | 
4 | CC(C)c1cc(F)cc(Oc2c(Cl)ccc(CNC(=O)C3CCN(S(C)(=O)=O)CC3)c2Cl)c1 [Example 148] | 
33 | CC(C)c1cc(F)cc(Oc2c(Cl)ccc(NC(=O)Cc3ccc(S(C)(=O)=O)cc3)c2Cl)c1 [Example 75] | 
220 | CCS(=O)(=O)NC1CN(CC(=O)Nc2cc(Cl)c(Oc3ccc(OC)c(C(C)C)c3)c(Cl)c2)C1 [Example 162] | 
11 | CC(c1cc(F)cc(Oc2c(Cl)ccc(C(=O)N3CCC4(CC3)CN(S(C)(=O)=O)C4)c2Cl)c1)C(F)(F)F (centres unmarked) [Example 357] | 
260 | CC(=O)NC[C@H]1CN(c2cc(Cl)c(Oc3cc(F)cc(C(C)C)c3)c(Cl)c2)C(=O)O1 [Example 272] | 
100 | COc1ccc(Oc2c(Cl)ccc(C(=O)NCc3cnc(C)cn3)c2Cl)cc1C(C)C [Example 206] | 
481 | COc1ccc(Oc2c(Cl)ccc(C(=O)NC[C@H]3CC[C@H](C(=O)OC)CC3)c2Cl)cc1C(C)C [Example 69] | 
128 | COc1ccc(Oc2c(Cl)ccc(C(=O)N3CCC(c4ccc(Cl)cc4)CC3)c2Cl)cc1C(C)C [Example 191] | 
522 | CCS(=O)(=O)N1CCC(CC(=O)NCc2ccc(Cl)c(Oc3ccc(OC)c(C(C)C)c3)c2Cl)CC1 [Example 187] | 
752 | COc1ccc(Oc2c(Cl)cc(NC(=O)Cc3ccnc(N)c3)cc2Cl)cc1C(C)C [Example 238] | 
75 | COc1ccc(Oc2c(Cl)ccc(C(=O)N3CCC4(CC3)CN(C=O)C4)c2Cl)cc1C(C)C [Example 341] | 

EC50 (read-out: RORg_GAL4 EC50) [nM] | Compound | EC50 (RORg_GAL4 EC50 (nM)) [nM]
40000 | COc1ccc(Oc2c(Cl)cc(NC(=O)CCc3ccccc3)cc2Cl)cc1C(C)C [Example 284] | 
18 | C=C(C)c1cc(Oc2c(Cl)cc(NC(=O)CC3CCN(S(C)(=O)=O)CC3)cc2Cl)cnc1OC [Example 73] | 
7.2 | CC(C)(F)c1cc(F)cc(Oc2c(Cl)cc(NC(=O)Cc3ccc(S(C)(=O)=O)cc3)cc2Cl)c1 [Example 325] | 
1480 | COc1ccc(Oc2c(Cl)cc(NC(=O)c3cccc(S(C)(=O)=O)c3)cc2Cl)cc1C(C)C [Example 289] | 
35 | COc1ncc(Oc2c(Cl)cc(NC(=O)CC3CCN(S(=O)(=O)CCl)CC3)cc2Cl)cc1C(C)C [Example 127] | 
1130 | COc1ccc(Oc2c(Cl)ccc(C(=O)N3CCc4ccccc4C3)c2Cl)cc1C(C)C [Example 179] | 
25 | CCS(=O)(=O)N1CCC(CNC(=O)c2ccc(Cl)c(Oc3cc(F)cc(C(C)C)c3)c2Cl)CC1 [Example 115] | 
50 | COc1ccc(Oc2c(Cl)ccc(C(=O)N(C)CC3CCN(S(N)(=O)=O)CC3)c2Cl)cc1C(C)C [Example 103] | 
270 | COc1ccc(Oc2c(Cl)cc(NC(=O)CN3CCC[C@H](NS(C)(=O)=O)C3)cc2Cl)cc1C(C)C [Example 168] | 
26 | CCS(=O)(=O)N1CCC(CNC(=O)c2ccc(Cl)c(Oc3ccc(OC)c(C(C)C)c3)c2Cl)CC1 [Example 94] | 
650 | COc1ccc(Oc2c(Cl)ccc(CNS(=O)(=O)c3cccnc3)c2Cl)cc1C(C)C [Example 21, N-(2,4-dichloro-3-(3-isopropyl-4-methoxyphenoxy)benzyl)pyridine-3-sulfonamide] | 
920 | COc1ccc(Oc2c(Cl)ccc(C(=O)NCC3CCCC(O)C3)c2Cl)cc1C(C)C (centres unmarked) [Example 225] | 
844 | COc1ccc(Oc2c(Cl)cc(NC(=O)CC3CCCN(S(N)(=O)=O)C3)cc2Cl)cc1C(C)C (centres unmarked) [Example 314] | 
14 | COc1ccc(Oc2c(Cl)ccc(CNC(=O)C3CCN(S(=O)(=O)C4CC4)CC3)c2Cl)cc1C(C)C [Example 97] | 
1010 | COc1ccc(Oc2c(Cl)cc(NC(=O)CCN3CCOCC3)cc2Cl)cc1C(C)C [Example 296] | 
28 | CCS(=O)(=O)N1CCN(CC(=O)NCc2ccc(Cl)c(Oc3ccc(OC)c(C(C)C)c3)c2Cl)CC1 [Example 185] | 
44 | COc1ccc(Oc2c(Cl)cc(NC(=O)CCn3ccnc3)cc2Cl)cc1C(C)C [Example 297] | 
983 | COc1ccc(Oc2c(Cl)cc(NC(=O)[C@H]3CC[C@@H](C(=O)OC)CC3)cc2Cl)cc1C(C)C [Example 339] | 
89 | COc1ccc(Oc2c(Cl)ccc(C(=O)N3CCC(N(C)C)CC3)c2Cl)cc1C(C)C [Example 192] | 
1.7 | CC1(c2cc(F)cc(Oc3c(Cl)cc(NC(=O)CC4CCN(S(C)(=O)=O)CC4)cc3Cl)c2)CC1 [Example 51, N-(3,5-dichloro-4-(3-fluoro-5-(1-methylcyclopropyl)phenoxy)phenyl)-2-(1-(methylsulfonyl)piperidin-4-yl)acetamide] | 

EC50 (read-out: RORg_GAL4 EC50) [nM] | Compound | EC50 (RORg_GAL4 EC50 (nM)) [nM]
30 | COc1ccc(Oc2c(Cl)cc(NC(=O)Cc3ccc(S(C)(=O)=O)cc3)cc2Cl)cc1C(C)C [Example 38, N-(3,5-dichloro-4-(3-isopropyl-4-methoxyphenoxy)phenyl)-2-(4-(methylsulfonyl)phenyl)acetamide] | 
1890 | CCNC(=O)Nc1cc(Cl)c(Oc2ccc(OC)c(C(C)C)c2)c(Cl)c1 [Example 306] | 
1500 | COc1ccc(Oc2c(Cl)ccc(C(=O)NCCc3ccc(S(N)(=O)=O)cc3)c2Cl)cc1C(C)C [Example 219] | 
 | CC(C)c1cc(F)cc(Oc2c(Cl)ccc(C(=O)N3CCN(S(C)(=O)=O)CC3)c2Cl)c1 [Example 263] | 105
1170 | COc1ccc(Oc2c(Cl)ccc(C(=O)NCCN3CCCC3=O)c2Cl)cc1C(C)C [Example 83] | 
3.2 | COc1ncc(Oc2c(Cl)cc(NC(=O)CC3CCN(S(C)(=O)=O)CC3)cc2Cl)cc1C1CC1 [Example 126] | 
6.6 | COc1ncc(Oc2c(Cl)ccc(CNC(=O)C3CCN(S(C)(=O)=O)CC3)c2Cl)cc1C(C)C [Example 144] | 
54 | COc1ccc(Oc2c(Cl)cc(NC(=O)Cc3ccc(S(C)(=O)=O)nc3)cc2Cl)cc1C(C)C [Example 3, N-(3,5-dichloro-4-(3-isopropyl-4-methoxyphenoxy)phenyl)-2-(6-(methylsulfonyl) Pyridin-3-yl)acetamide] | 
23 | COc1ccc(Oc2c(Cl)ccc(C(=O)N(C)CC3(O)CCN(S(C)(=O)=O)CC3)c2Cl)cc1C(C)C [Example 64] | 
344 | Cc1ccc(Oc2c(Cl)cc(NC(=O)Cc3cccnc3)cc2Cl)cc1C(C)C [Example 49, N-(3,5-dichloro-4-(3-isopropyl-4-methylphenoxy)phenyl)-2-(pyridin-3-yl)acetamide] | 
284 | COc1ccc(Oc2c(Cl)cc(NC(=O)CCCc3ccccc3)cc2Cl)cc1C(C)C [Example 285] | 
455 | COc1ccc(Oc2c(Cl)cc(NC(=N)Cc3cccnc3)cc2Cl)cc1C(C)C [Example 36, N-(3,5-dichloro-4-(3-isopropyl-4-methoxyphenoxy)phenyl)-2-(pyridin-3-yl)acetimidamide] | 
383 | COc1ccc(Oc2c(Cl)ccc(NC(=O)CC3CN(S(C)(=O)=O)C3)c2Cl)cc1C(C)C [Example 58] | 
245 | CCS(=O)(=O)N[C@@H]1CCCN(CC(=O)Nc2cc(Cl)c(Oc3ccc(OC)c(C(C)C)c3)c(Cl)c2)C1 [Example 167] | 
37 | COc1ccc(Oc2c(Cl)ccc(C(=O)Nc3ccccc3CC#N)c2Cl)cc1C(C)C [Example 215] | 
76 | COc1ccc(Oc2c(Cl)cc(NC(=O)C[C@H]3CCCN(S(=O)(=O)C4CC4)C3)cc2Cl)cc1C(C)C [Example 318] | 
396 | COc1ccc(Oc2c(Cl)ccc(C(=O)NCCn3ccnc3)c2Cl)cc1C(C)C [Example 19, N-(2-(1H-imidazol-1-yl)ethyl)-2,4-dichloro-3-(3-isomethoxyphenoxy)benzamide] | 
49 | COc1ncc(Oc2c(Cl)cc(NC(=O)CC3CCN(C(=O)C(F)(F)F)CC3)cc2Cl)cc1C(C)C [Example 74] | 
635 | COc1ccc(Oc2c(Cl)cc(NC(=O)NCCS(N)(=O)=O)cc2Cl)cc1C(C)C [Example 234] | 
